Assay results reported in patent US12187709B2 (Genentech, Inc., priority 2021, dated 2025).

How the values were obtained:
c-Cbl (residues 47-435) = c-Cbl (residues 47-435) (Homo sapiens (Human), UniProt P22681); test: c-Cbl SPR assay; type: binding; settings: 20° C.
Summary of the method: (§1)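 Binding is measured by surface plasmon resonance against both isoforms, with double referencing and 1:1 kinetic fitting. Dissociation time is tuned to 4-5 half-lives.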

Cbl-b = Cbl-b (Homo sapiens (Human), UniProt Q13191); test: Cbl-b LCK Ub TR-FRET assay (Cbl-b Lck HTRF); type: biochemical; settings: for IC50: Cbl-b LCK Ub TR-FRET; for fold-selectivity (Cbl-b over C-cbl): ratio C-cbl Lck HTRF IC50 / Cbl-b Lck HTRF IC50
Cbl-b, sequence (Q13191 40-426): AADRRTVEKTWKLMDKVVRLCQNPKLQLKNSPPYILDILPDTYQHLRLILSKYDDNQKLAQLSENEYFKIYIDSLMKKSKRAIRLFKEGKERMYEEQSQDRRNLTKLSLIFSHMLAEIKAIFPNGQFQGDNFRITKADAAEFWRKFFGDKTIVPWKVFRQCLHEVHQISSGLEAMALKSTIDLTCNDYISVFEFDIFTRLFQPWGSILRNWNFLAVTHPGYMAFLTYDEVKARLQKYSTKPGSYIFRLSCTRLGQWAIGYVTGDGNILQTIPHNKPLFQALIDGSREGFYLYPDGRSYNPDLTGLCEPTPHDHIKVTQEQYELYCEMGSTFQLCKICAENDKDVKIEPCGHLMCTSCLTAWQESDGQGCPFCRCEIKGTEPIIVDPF
Summary of the method: (§2)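 Signal is read once the detection mix has stood 20 min at ambient temperature. Curves are anchored by DMSO as maximum and by omission of LCK as minimum.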

[1] = target: Human Cbl-b (residues 40-426) (Homo sapiens (Human), UniProt Q13191); test: Cbl-b SPR assay; type: binding; settings: for Fold of selectivity: C-cbl SPR Kd vs Cbl-b SPR Kd; for Kd: SPR, 20° C.
Human Cbl-b (residues 40-426), sequence (Q13191 40-426): as above
Summary of the method: as §1

c-Cbl = c-Cbl (Homo sapiens (Human), UniProt P22681); test: C-Cbl LCK Ub TR-FRET assay (C-cbl Lck HTRF); type: biochemical
c-Cbl, sequence (P22681 47-435): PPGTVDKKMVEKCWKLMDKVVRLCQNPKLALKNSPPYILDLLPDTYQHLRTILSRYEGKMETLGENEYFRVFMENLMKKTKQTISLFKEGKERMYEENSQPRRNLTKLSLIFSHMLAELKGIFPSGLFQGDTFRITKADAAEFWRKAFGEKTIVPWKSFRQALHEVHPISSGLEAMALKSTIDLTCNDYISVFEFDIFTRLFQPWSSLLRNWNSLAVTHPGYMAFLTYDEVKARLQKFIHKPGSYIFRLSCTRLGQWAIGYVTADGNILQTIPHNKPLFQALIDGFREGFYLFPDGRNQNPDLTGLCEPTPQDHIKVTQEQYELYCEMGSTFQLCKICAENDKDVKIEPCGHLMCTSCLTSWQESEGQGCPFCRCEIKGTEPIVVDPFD
Summary of the method: as §2

c-Cbl (residues 47-435), sequence (P22681 47-435): as above

Structure (SMILES)	Kd (c-Cbl (residues 47-435))	IC50 (Cbl-b)	fold-selectivity (Cbl-b over C-cbl) (Cbl-b)	Fold of selectivity [1]	Kd [1]	IC50 (c-Cbl)
CO[C@H]1C[C@@](c2cc(NC3CCC3)cc(N3Cc4c(cc(CNC5(C)CCC5)cc4C(F)(F)F)C3=O)c2)(c2nncn2C)C1 [Compound 217, 2-(3-(cyclobutylamino)-5-((1s,3s)-3-methoxy-1-(4-methyl-4H-1,2,4-triazol-3-yl)cyclobutyl)phenyl)-6-(((1-methylcyclobutyl)amino)methyl)-4-(trifluoromethyl)isoindolin-1-one]	0.091 µM	0.018 µM	5.5x	13×	0.0075 µM	0.097 µM
CO[C@H]1C[C@@](c2cc(NC3CCCC3)cc(N3Cc4c(cc(CNC5(C)CCC5)cc4C(F)(F)F)C3=O)c2)(c2nncn2C)C1 [Compound 218, 2-(3-(cyclopentylamino)-5-((1s,3s)-3-methoxy-1-(4-methyl-4H-1,2,4-triazol-3-yl)cyclobutyl)phenyl)-6-(((1-methylcyclobutyl)amino)methyl)-4-(trifluoromethyl)isoindolin-1-one]	0.77 µM	0.081 µM	10x	10×	0.077 µM	0.81 µM
CC(C)O[C@H]1C[C@@](c2cccc(N3Cc4c(cc(CNC5(C)CCC5)cc4C(F)(F)F)C3=O)c2)(c2nncn2C)C1 [Compound 222, 2-(3-((1s,3s)-3-isopropoxy-1-(4-methyl-4H-1,2,4-triazol-3-yl)cyclobutyl)phenyl)-6-(((1-methylcyclobutyl)amino)methyl)-4-(trifluoromethyl)isoindolin-1-one]	0.2 µM	0.064 µM	4.2x	13×	0.014 µM	0.27 µM
CO[C@H]1C[C@@](c2cc(NC(C)C)cc(N3Cc4c(cc(CNC5(C)CCC5)cc4C(F)(F)F)C3=O)c2)(c2nncn2C)C1 [Compound 223, 2-(3-(isopropylamino)-5-((1s,3s)-3-methoxy-1-(4-methyl-4H-1,2,4-triazol-3-yl)cyclobutyl)phenyl)-6-(((1-methylcyclobutyl)amino)methyl)-4-(trifluoromethyl)isoindolin-1-one]	0.022 µM	0.015 µM	1.4x	7.5×	0.0029 µM	0.021 µM
CO[C@H]1C[C@](c2cc(C3CC3)cc(N3Cc4c(cc(CNC5(C)CCC5)cc4C(F)(F)F)C3=O)c2)(c2nncn2C)C1 [Compound 226, 2-(3-cyclopropyl-5-((1r,3r)-3-methoxy-1-(4-methyl-4H-1,2,4-triazol-3-yl)cyclobutyl)phenyl)-6-(((1-methylcyclobutyl)amino)methyl)-4-(trifluoromethyl)isoindolin-1-one]	0.0042 µM	0.011 µM	0.99x	3.2×	0.0013 µM	0.01 µM
COC1CC2(C1)CC(c1cccc(N3Cc4c(cc(CNC5(C)CCC5)cc4C(F)(F)F)C3=O)c1)(c1nncn1C)C2 (stereo not drawn) [Compound 229, 2-(3-(6-methoxy-2-(4-methyl-4H-1,2,4-triazol-3-yl)spiro[3.3]heptan-2-yl)phenyl)-6-(((1-methylcyclobutyl)amino)methyl)-4-(trifluoromethyl)isoindolin-1-one]	0.76 µM	0.23 µM	5.9x	7.0×	0.11 µM	1.4 µM
CO[C@H]1C[C@](c2cc(C)cc(N3Cc4c(cc(CNC5(C)CCC5)cc4C(F)(F)F)C3=O)c2)(c2nncn2C)C1 [Compound 230, 2-(3-((1r,3r)-3-methoxy-1-(4-methyl-4H-1,2,4-triazol-3-yl)cyclobutyl)-5-methylphenyl)-6-(((1-methylcyclobutyl)amino)methyl)-4-(trifluoromethyl)isoindolin-1-one]	0.17 µM	0.19 µM	1.5x	2.3×	0.075 µM	0.29 µM
CO[C@H]1C[C@@](c2cc(NC3CC3)cc(N3Cc4c(cc(CNC5(C)CCC5)cc4C(F)(F)F)C3=O)c2)(c2nncn2C)C1 [Compound 231, 2-(3-(cyclopropylamino)-5-((1s,3s)-3-methoxy-1-(4-methyl-4H-1,2,4-triazol-3-yl)cyclobutyl)phenyl)-6-(((1-methylcyclobutyl)amino)methyl)-4-(trifluoromethyl)isoindolin-1-one]	0.0081 µM	0.011 µM	1.5x	5.4×	0.0015 µM	0.017 µM
CO[C@H]1C[C@](c2cc(NC3COC3)cc(N3Cc4c(cc(CNC5(C)CCC5)cc4C(F)(F)F)C3=O)c2)(c2nncn2C)C1 [Compound 234, 2-(3-((1r,3r)-3-methoxy-1-(4-methyl-4H-1,2,4-triazol-3-yl)cyclobutyl)-5-(oxetan-3-ylamino)phenyl)-6-(((1-methylcyclobutyl)amino)methyl)-4-(trifluoromethyl)isoindolin-1-one]	0.076 µM	0.025 µM	5.6x	10×	0.0074 µM	0.14 µM

The remaining lines, values ahead:

Kd (c-Cbl (residues 47-435))	IC50 (Cbl-b)	fold-selectivity (Cbl-b over C-cbl) (Cbl-b)	Fold of selectivity [1]	Kd [1]	IC50 (c-Cbl)	Structure (SMILES)
0.1 µM	0.02 µM	5.0x	10×	0.0095 µM	0.1 µM	CO[C@H]1C[C@@](c2cc(NCCC#N)cc(N3Cc4c(cc(CNC5(C)CCC5)cc4C(F)(F)F)C3=O)c2)(c2nncn2C)C1 [Compound 224]
0.011 µM	0.01 µM	1.6x	6.5×	0.0017 µM	0.016 µM	CCNc1cc(N2Cc3c(cc(CNC4(C)CCC4)cc3C(F)(F)F)C2=O)cc([C@]2(c3nncn3C)C[C@@H](OC)C2)c1 [Compound 227, 2-(3-(ethylamino)-5-((1s,3s)-3-methoxy-1-(4-methyl-4H-1,2,4-triazol-3-yl)cyclobutyl)phenyl)-6-(((1-methylcyclobutyl)amino)methyl)-4-(trifluoromethyl)isoindolin-1-one]
0.013 µM	0.013 µM	2.6x	9.2×	0.0014 µM	0.035 µM	C=CCNc1cc(N2Cc3c(cc(CNC4(C)CCC4)cc3C(F)(F)F)C2=O)cc([C@]2(c3nncn3C)C[C@H](OC)C2)c1 [Compound 232, 2-(3-(allylamino)-5-((1r,3r)-3-methoxy-1-(4-methyl-4H-1,2,4-triazol-3-yl)cyclobutyl)phenyl)-6-(((1-methylcyclobutyl)amino)methyl)-4-(trifluoromethyl)isoindolin-1-one]
0.11 µM	0.078 µM	1.4x	2.9×	0.036 µM	0.11 µM	CCc1cc(N2Cc3c(cc(CNC4(C)CCC4)cc3C(F)(F)F)C2=O)cc([C@]2(c3nncn3C)C[C@@H](OC)C2)c1 [Compound 235, 2-(3-ethyl-5-((1s,3s)-3-methoxy-1-(4-methyl-4H-1,2,4-triazol-3-yl)cyclobutyl)phenyl)-6-(((1-methylcyclobutyl)amino)methyl)-4-(trifluoromethyl)isoindolin-1-one]
0.047 µM	0.038 µM	1.7x	2.5×	0.019 µM	0.065 µM	CCc1cc(N2Cc3c(cc(CNC4(C)CCC4)cc3C(F)(F)F)C2=O)cc([C@]2(c3nncn3C)C[C@H](OC)C2)c1 [Compound 236, 2-(3-ethyl-5-((1r,3r)-3-methoxy-1-(4-methyl-4H-1,2,4-triazol-3-yl)cyclobutyl)phenyl)-6-(((1-methylcyclobutyl)amino)methyl)-4-(trifluoromethyl)isoindolin-1-one]
0.0058 µM	0.012 µM	1.1x	2.6×	0.0022 µM	0.014 µM	CNc1cc(N2Cc3c(cc(CNC4(C)CCC4)cc3C(F)(F)F)C2=O)cc([C@]2(c3nncn3C)C[C@@H](OC)C2)c1 [Compound 238, 2-(3-((1s,3s)-3-methoxy-1-(4-methyl-4H-1,2,4-triazol-3-yl)cyclobutyl)-5-(methylamino)phenyl)-6-(((1-methylcyclobutyl)amino)methyl)-4-(trifluoromethyl)isoindolin-1-one]
0.0044 µM	0.013 µM	1.0x	4.4×	0.001 µM	0.013 µM	CNc1cc(N2Cc3c(cc(CNC4(C)CCC4)cc3C(F)(F)F)C2=O)cc([C@]2(c3nncn3C)C[C@H](OC)C2)c1 [Compound 239, 2-(3-((1r,3r)-3-methoxy-1-(4-methyl-4H-1,2,4-triazol-3-yl)cyclobutyl)-5-(methylamino)phenyl)-6-(((1-methylcyclobutyl)amino)methyl)-4-(trifluoromethyl)isoindolin-1-one]
0.027 µM	0.014 µM	3.7x	12×	0.0023 µM	0.051 µM	C=CCNc1cc(N2Cc3c(cc(CNC4(C)CCC4)cc3C(F)(F)F)C2=O)cc([C@]2(c3nncn3C)C[C@@H](OC)C2)c1 [Compound 240, 2-(3-(allylamino)-5-((1s,3s)-3-methoxy-1-(4-methyl-4H-1,2,4-triazol-3-yl)cyclobutyl)phenyl)-6-(((1-methylcyclobutyl)amino)methyl)-4-(trifluoromethyl)isoindolin-1-one]
